One data set has as its system FCA induced hyperalgesia. Nature of the data set: Freund complete adjuvant (FCA) induced hyperalgesia model. It is filed as in vivo. The settings on record: po; post-treatment time 3 hours; read-out: reversal of the hyperalgesia ED50. The method, then:
At doses of about 4 to about 40 mg/kg p.o., the agents of the invention show reversal of Freund complete adjuvant (FCA) induced hyperalgesia [cf. J. Donnerer et al., Neuroscience 49, 693-698 (1992) and C. J. Woolf, Neuroscience 62, 327-331 (1994)].
(§1) Preferred compounds for the above mentioned indications include (3-{2-[2-trans-(3,5-dichlorophenyl)-vinyl]-6-methyl-pyridin-3-yloxy}-propyl)-dimethylamine (A), 2-methyl-6-styryl-pyridine (B), 2-(3-fluoro-phenylethynyl)-6-methyl-pyridine (C) and 2-(4-ethoxy-3-trifluoromethyl-phenylethynyl)-6-methyl-pyridine (D).

The test system of data set [1] is electroshock induced convulsion. Nature of the data set: electroshock induced convulsion model. The settings on record: ip, read-out: anticonvulsive activity ED50. It is filed as in vivo. The method, then: At doses of about 10 to 100 mg/kg i.p. or p.o. with pretreatment times of 15 min. to 8 hours, the agents of the invention show anticonvulsive activity in the electroshock induced convulsion model [cf. E. A. Swinyard, J. Pharm. Assoc. Scient. Ed. 38, 201 (1949) and J. Pharmacol. Exptl. Therap. 106, 319 (1952)].
as §1

Where two headings read alike, the source gives them in different places.

In turn, `Cc1cccc(C#Cc2cccc(F)c2)n1` [C, 2-(3-fluoro-phenylethynyl)-6-methyl-pyridine] returned a melting point of 26 to 28 °C. Moreover, in the data set on FCA induced hyperalgesia, the ED50 was determined as 4.2 mg/kg.

In the case of `CCOc1ccc(C#Cc2cccc(C)n2)cc1C(F)(F)F` [D, 2-(4-ethoxy-3-trifluoromethyl-phenylethynyl)-6-methyl-pyridine], the ED50 in the data set with FCA induced hyperalgesia was 19 mg/kg. For `Cc1ccc(OCCCN(C)C)c(/C=C/c2cc(Cl)cc(Cl)c2)n1` [A, (3-{2-[2-trans-(3,5-dichlorophenyl)-vinyl]-6-methyl-pyridin-3-yloxy}-propyl)-dimethylamine], the ED50 in data set [1] (pretreatment time 4 hours) turned out to be 30 mg/kg.

For `Cc1cccc(C=Cc2ccccc2)n1` [B, 2-methyl-6-styryl-pyridine], the ED50 in data set [1] (pretreatment time 15 min.) amounted to 35 mg/kg.

One may read the melting point as the temperature, or range, at which the solid turns liquid. As usually defined, the ED50 is the dose at which the effect has come halfway, by size or by number of responders.
